Results published in patent US10654896B2, “FoxP3-binding peptides and uses thereof” (FUNDACIÓN PARA LA INVESTIGACIÓN MÉDICA APLICADA, priority 2016, dated 2020).
Where a SMILES comes first, the peptide text is derived from it. [ ]: non-standard residue; d: D form.

Legend:
[1] = molecular target: T1, human FOXP3 (FOXP3-6His) (Homo sapiens, UniProt Q9BZS1); assay: Peptide binding to FOXP3 by surface plasmon resonance (SPR); conditions: peptides 1-20 μM; ratio to p60 (SEQ ID NO: 1)
T1 construct: 6xHis (C); made in house; host or cells: E. coli BL21 (DE3)
T1 sequence (Q9BZS1 1-431): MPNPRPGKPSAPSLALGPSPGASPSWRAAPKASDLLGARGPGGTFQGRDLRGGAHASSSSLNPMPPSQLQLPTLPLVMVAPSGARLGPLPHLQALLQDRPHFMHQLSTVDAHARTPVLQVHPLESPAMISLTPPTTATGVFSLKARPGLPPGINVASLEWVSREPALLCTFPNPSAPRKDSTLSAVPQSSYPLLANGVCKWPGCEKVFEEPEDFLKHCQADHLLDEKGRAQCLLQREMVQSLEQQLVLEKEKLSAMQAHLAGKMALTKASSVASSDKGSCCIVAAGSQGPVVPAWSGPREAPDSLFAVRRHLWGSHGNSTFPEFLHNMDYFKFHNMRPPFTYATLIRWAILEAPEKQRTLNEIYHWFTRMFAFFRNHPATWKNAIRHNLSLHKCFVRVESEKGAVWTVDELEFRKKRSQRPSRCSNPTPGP
Procedure, shortened: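 C-terminally 6His-tagged human FOXP3, expressed in E. coli BL21(DE3) and Ni-affinity purified, was amine-coupled to a GLM chip (ProteOn XPR36). Peptides at 1–20 μM injected in triplicate in PBS, 0.005% Tween 20, pH 7.4, at 30 μl/min, with interspot reference. Binding given as ratio to reference peptide p60.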

[2] = molecular target: T2, FOXP3/Runx1 heterodimerization (Homo sapiens, UniProt Q9BZS1); assay: FOXP3/Runx1 heterodimerization inhibition (Alphascreen); assay type: biochemical; conditions: for inhibition at 2.5 µM: read-out: Foxp3-Runx1 Inhibition % inhibition (2.5 μM)
T2 construct: made in house; host or cells: E. coli BL21 (DE3)
T2 sequence (Q9BZS1 1-431): T1 sequence (Q9BZS1 1-431)
Excerpt: Plasmid pET20b FOXP3-His was generated to produce the human FOXP3 tagged with 6 histidines at the C terminus of the protein. Briefly, plasmid pDEST15-FOXP3 (provided by Dr. Casal, Madrid, Spain) was used as template to amplify FOXP3 by PCR using the primers Upper FOXP3 Ndel catatgcccaaccccaggc (SEQ ID NO: 55) and Lower FOXP3 […] (SEQ ID NO: 56). The resulting fragment was subcloned in pET20b at Ndel and NotI sites. pET45b His-Runx1 was obtained by PCR of activated human CD4 T cells obtained from healthy volunteers (after the signature of an informed consent) using the primers Upper Runx1 atgcgtatccccgtagatg (SEQ ID NO: 57) and Lower Runx1 […] (SEQ ID NO: 58) and the fragment was cloned in pcDNA3.1. Then, pET45b and pcDNA3.1-Runx1 were digested with BamHI and NotI and ligated to obtain pET45b-Runx1. Plasmids were used to transform BL21 cells (DE3; Novagen, Schwalbach, Germany) for the expression of the recombinant protein. The transformed BL21 cells were grown in LB medium at 37° C. (1 liter of final culture medium) (with ampicilin 0.1 mg/ml). Once the OD of the culture was between 0.5 and 1.0, IPTG (0.4 mM, final concentration) was added. Bacteria were then cultured overnight in agitation and centrifuged for 10 min at 8000 rpm. Cell pellet was then resuspended in 4 ml Tris-HCl 0.1 M and frozen at −80° C. Cell pellet was then thawed and incubated with lisozyme (25 KU) and a protease inhibitor cocktail for 15 min at 30° C. before cell lysis induced with a French-press. The resultant pool was then centrifuged during 20 min at 11.000 rpm). The recombinant protein was purified from the soluble fraction of French-press cell extracts by affinity chromatography (Histrap, Pharmacia) following manufacturer's instructions and using an FPLC platform (AKTA, Pharmacia). Plasmid pDEST15-FOXP3 encoding the fusion protein GST-FOXP3 (GST fused to the isoform A from human FOXP3 gene), was transformed into BL21 cells for the expression of the recombinant protein. GST-FOXP3 protein was purified from the soluble fraction of cell extracts obtained, as described above, by affinity chromatography (GSTrap; Amersham, Piscataway, N.J.) using a fast protein liquid chromatography platform (AKTA; Amersham) following manufacturer's instructions. The eluted proteins were desalted using Hitrap desalting columns (Pharmacia) and analyzed by SDS-PAGE using Coomassie blue (Bio-Safe Coomassie reagent; Bio-Rad, Hercules, Calif.) and by Western blot.
It has been described that dimerization of FOXP3 is required for its function as a transcriptional regulator. Moreover, interaction between FOXP3 and the transcription factor Runx1, is crucially required for normal hematopoiesis including thymic T-cell development, but also for Treg suppressor activity (Reviewed in Lozano et al, Front Oncol. 2013, 3:294). Both activities are mediated by the intermediate region of Foxp3, which is the area of interaction between P60 and Foxp3. Thus, we studied the effect of P60 and their mutants on the FOXP3/Runx1 heterodimerization, as well as FOXP3/FOXP3 homodimerization by Alphascreen technology according to the manufacturer's instructions (Perkin Elmer, Benelux). AlphaScreen™ is a bead-based technology that is designed to measure the proximity of donor and acceptor beads conjugated to biomolecules of interest.
To measure Foxp3-Runx1 interactions, Foxp3-GST and […] proteins were used.
Recombinant Runx1 expressed in E. Coli with a hexa-histidine tag (obtained as disclosed in section (1) above) was captured by nickel chelate acceptor beads following manufacturer's instructions, whereas the recombinant FOXP3 expressed with a GST tag was captured by glutathione donor beads (Perkin Elmer) following manufacturer's instructions. His-tagged Runx1 (46 nM final concentration) was incubated with 100 nM GST-FOXP3 and the peptides to be tested (added at different concentrations from 1 to 100 μM) for 1 h at room temperature. […]

Row | Compound | Binding to Foxp3 Ratio binding Peptide/p60 (fold change) [1] [fold change] | inhibition at 100 µM ([2]; read-out: Foxp3-Runx1 Inhibition % inhibition (100 μM)) [%] | inhibition at 2.5 µM [2] [%]
1 | H-RDFQSFRKMWPFFAM-OH [compound 1] | 1.0 | 54.5 | 
2 | CSCC[C@H](NC(=O)[C@H](C)NC(=O)[C@H](Cc1ccccc1)NC(=O)[C@H](Cc1ccccc1)NC(=O)[C@@H]1CCCN1C(=O)[C@H](Cc1c[nH]c2ccccc12)NC(=O)[C@H](CCSC)NC(=O)[C@H](CCCCN)NC(=O)[C@H](CCCNC(=N)N)NC(=O)[C@H](Cc1ccccc1)NC(=O)[C@H](CO)NC(=O)[C@H](CCC(N)=O)NC(=O)[C@H](Cc1ccccc1)NC(=O)[C@@H](CC(=O)O)NC(=O)[C@@H](N)CCCNC(=N)N)C(=O)O [compound 3] (H-R[dD]FQSFRKMWPFFAM-OH) | 2.8 |  | 
3 | CSCC[C@H](NC(=O)[C@H](CCCCN)NC(=O)[C@H](CCCNC(=N)N)NC(=O)[C@H](Cc1ccccc1)NC(=O)[C@H](CO)NC(=O)[C@H](CCC(N)=O)NC(=O)[C@H](Cc1ccccc1)NC(=O)[C@H](C)NC(=O)[C@H](N)CCCNC(=N)N)C(=O)N[C@@H](Cc1c[nH]c2ccccc12)C(=O)N1CCC[C@H]1C(=O)N[C@@H](Cc1ccccc1)C(=O)N[C@@H](Cc1ccccc1)C(=O)N[C@@H](C)C(=O)N[C@H](CCSC)C(=O)O [compound 48] (H-[dR]AFQSFRKMWPFFA[dM]-OH; N-terminus and C-terminus assumed) | 2.5 |  | 70
4 | CSCC[C@H](NC(=O)[C@H](CCCCN)NC(=O)[C@H](CCCNC(=N)N)NC(=O)[C@H](Cc1ccccc1)NC(=O)[C@H](CO)NC(=O)[C@H](CCC(N)=O)NC(=O)[C@H](Cc1ccccc1)NC(=O)[C@H](C)NC(=O)[C@@H](N)CCCNC(=N)N)C(=O)N[C@@H](Cc1c[nH]c2ccccc12)C(=O)N1CCC[C@H]1C(=O)N[C@@H](Cc1ccccc1)C(=O)N[C@@H](Cc1ccccc1)C(=O)N[C@@H](C)C(=O)N[C@H](CCSC)C(=O)O [compound 47] (H-RAFQSFRKMWPFFA[dM]-OH; N-terminus and C-terminus assumed) | 1.7 |  | 75
5 | CSCC[C@H](NC(=O)[C@H](C)NC(=O)[C@H](Cc1ccccc1)NC(=O)[C@H](Cc1ccccc1)NC(=O)[C@@H]1CCCN1C(=O)[C@H](Cc1c[nH]c2ccccc12)NC(=O)[C@H](CCSC)NC(=O)[C@H](CCCCN)NC(=O)[C@H](CCCNC(=N)N)NC(=O)[C@H](Cc1ccccc1)NC(=O)[C@H](CO)NC(=O)[C@H](CCC(N)=O)NC(=O)[C@H](Cc1ccccc1)NC(=O)[C@H](C)NC(=O)[C@H](N)CCCNC(=N)N)C(=O)O [compound 46] (H-[dR]AFQSFRKMWPFFAM-OH; N-terminus and C-terminus assumed) | 2.7 |  | 95
6 | CSCC[C@@H]1NC(=O)[C@H](C)NC(=O)[C@H](Cc2ccccc2)NC(=O)[C@H](Cc2ccccc2)NC(=O)[C@@H]2CCCN2C(=O)[C@H](Cc2c[nH]c3ccccc23)NC(=O)[C@H](CCSC)NC(=O)[C@H](CCCCN)NC(=O)[C@H](CCCNC(=N)N)NC(=O)[C@H](Cc2ccccc2)NC(=O)[C@H](C)NC(=O)[C@H](CCC(N)=O)NC(=O)[C@H](Cc2ccccc2)NC(=O)[C@H](C)NC(=O)[C@H](CCCNC(=N)N)NC1=O [compound 50] (cyclo(RAFQAFRKMWPFFAM)) |  |  | 60
